Test systems include DMS 114 small cell lung; DMS 273 small cell lung; KM20L2 colon; LXFL 529 NSCLC; RXF-631 renal.
What all share (assay): inhibition of tumour cell growth, NCI panel, 48 h

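How tested: cells in 96-well plates exposed to compound for 48 hours at five concentrations. Definition used: TGI = concentration required for complete inhibition of growth.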

Regarding `Cc1ccc(Sc2ccccc2N)cc1`, the TGI with DMS 114 small cell lung is over 100 µM; in the assay with DMS 273 small cell lung, over 100 µM; in the assay with KM20L2 colon it was over 100 µM; in the assay with LXFL 529 NSCLC it was 32.9 µM; in the assay with RXF-631 renal, over 100 µM.

As to `COc1ccc(/C=C/C(=O)c2sc(-c3cccnc3)nc2C)cc1`, the TGI with DMS 114 small cell lung, in the assay with DMS 273 small cell lung, with KM20L2 colon and in the assay on RXF-631 renal was over 100 µM in each case.

Turning to `CCN(CC)Cc1cc(Nc2ccnc3ccc4nn(C)nc4c23)ccc1O`, the TGI is 25.3 µM with KM20L2 colon, 27.6 µM in the assay on LXFL 529 NSCLC and 31.3 µM with RXF-631 renal.

Turning to `CC(C)c1ccc(/C=C/c2cc(C(=O)NNC(=O)NC3CCCCC3)nc(=S)[nH]2)cc1`, the TGI in the assay with DMS 114 small cell lung, in the assay on DMS 273 small cell lung, with KM20L2 colon, in the assay with LXFL 529 NSCLC and in the assay with RXF-631 renal was over 100 µM each time.

In the case of `C/C(=N/O)c1sc(-c2nc(C)c(/C(C)=N\O)s2)nc1C`, the TGI in the assay with DMS 114 small cell lung, in the assay with DMS 273 small cell lung, with KM20L2 colon, in the assay with LXFL 529 NSCLC and with RXF-631 renal was over 100 µM in each case.

Turning to `O=C(O)c1ccc([C@@H]2C(=O)N(O)[C@@H]3C=CC[C@@H]32)cc1`, the TGI in the assay on DMS 114 small cell lung, with DMS 273 small cell lung, in the assay on LXFL 529 NSCLC and in the assay with RXF-631 renal was over 100 µM each time.

As for `Cc1nc2c3c(ccc2[nH]c1=O)C(=O)c1ccccc1C3=O`, the TGI in the assay on DMS 114 small cell lung, in the assay with KM20L2 colon and in the assay on LXFL 529 NSCLC was over 100 µM in each case.

Regarding `COC(=O)C(=O)C(/C(=N/N)C(=O)Nc1ccccc1C(N)=O)c1nc2ccc([N+](=O)[O-])cc2[nH]c1=O` (stereo not drawn), the TGI in the assay on DMS 114 small cell lung, with DMS 273 small cell lung, with KM20L2 colon and in the assay on LXFL 529 NSCLC was over 100 µM throughout.

Consider `CC(C)OP(=O)(OC(C)C)C(=NCCN=C(NNc1ccccc1[N+](=O)[O-])P(=O)(OC(C)C)OC(C)C)NNc1ccccc1[N+](=O)[O-]`, for which the TGI is over 100 µM in the assay with DMS 114 small cell lung, over 100 µM in the assay with DMS 273 small cell lung, 60.2 µM in the assay with KM20L2 colon and over 100 µM in the assay with LXFL 529 NSCLC.

Turning to `CC1=C(C(=O)CC(=O)C(=O)Nc2ccc(C)c(C)c2)Sc2ccccc2N1`, the TGI in the assay on DMS 114 small cell lung, in the assay on DMS 273 small cell lung, in the assay on KM20L2 colon and in the assay on LXFL 529 NSCLC was over 100 µM throughout.

As to `COc1ccc2c(c1)[n+]([O-])c(/C(C)=N/NC(=O)c1ccccc1O)c(C)[n+]2[O-]`, the TGI with DMS 114 small cell lung, in the assay on KM20L2 colon, in the assay on LXFL 529 NSCLC and in the assay with RXF-631 renal was over 100 µM each time.

Take `CCOC(=O)C1SC(=Nc2ccc(Cl)cc2Cl)N=C1C` (stereo not drawn): the TGI with DMS 114 small cell lung, with DMS 273 small cell lung, with KM20L2 colon and with LXFL 529 NSCLC was over 100 µM in each case.

For `CN(C)C(=NC#N)N(Cc1ccccc1)Cc1ccccc1`, the TGI in the assay with DMS 273 small cell lung, in the assay with KM20L2 colon and with LXFL 529 NSCLC was over 100 µM each time.

With `COc1ccccc1NC(=O)CC(=O)N1N=C(c2ccccc2)C(N=Nc2ccc(Cl)cc2)C1=O` (stereo not drawn), the TGI in the assay on DMS 114 small cell lung, in the assay on DMS 273 small cell lung, with KM20L2 colon, with LXFL 529 NSCLC and with RXF-631 renal was over 100 µM each time.

Take `CC(=O)NC1COC(COC(=O)CCCCCCCCCCNC(=O)c2ccc([N+](=O)[O-])c3c(=O)c4ccccc4[nH]c23)C(O)C1OC(C)C(=O)NC(C(=O)NC(CCC(N)=O)C(=O)OCc1ccccc1)C(C)C` (stereo not drawn): the TGI was 30.4 µM in the assay with DMS 114 small cell lung; 27.3 µM in the assay on DMS 273 small cell lung; 33.5 µM with KM20L2 colon; over 60.6 µM in the assay with LXFL 529 NSCLC; over 100 µM with RXF-631 renal.

For `Cc1ccc(-c2nnc3s/c(=C\c4ccc(N(C)C)cc4)c(=O)n23)cc1`, the TGI with DMS 114 small cell lung, in the assay on DMS 273 small cell lung, in the assay on KM20L2 colon, in the assay with LXFL 529 NSCLC and with RXF-631 renal was over 100 µM in each case.

Take `O=C(O)CCN(CCCN(CCC(=O)O)CCC(=O)O)CCC(=O)O`: the TGI with DMS 114 small cell lung, in the assay on DMS 273 small cell lung, in the assay on KM20L2 colon, in the assay with LXFL 529 NSCLC and in the assay with RXF-631 renal was over 100 µM in each case.

Turning to `COC(=O)C(c1ccc(OC)cc1)N1C(=O)[C@@H](NC(=O)c2ccccc2)[C@H]1[C@@H](C)O` (stereo partly drawn), the TGI with DMS 273 small cell lung, with KM20L2 colon and with LXFL 529 NSCLC was over 100 µM throughout.

In the case of `O=C1C(c2ccccc2)=C(c2ccccc2)C(c2ccc(Sc3ccc(C4=C(c5ccccc5)C(=O)C(c5ccccc5)=C4c4ccccc4)cc3)cc2)=C1c1ccccc1`, the TGI in the assay with DMS 114 small cell lung, in the assay with DMS 273 small cell lung, in the assay on KM20L2 colon and with RXF-631 renal was over 100 µM in each case.

Turning to `NC(CCCCNCc1ccccc1)C(=O)O` (stereo not drawn), the TGI in the assay on DMS 114 small cell lung, in the assay on DMS 273 small cell lung, in the assay on KM20L2 colon, with LXFL 529 NSCLC and in the assay with RXF-631 renal was over 100 µM in each case.

Turning to `O=C(CC1(O)C(=O)Nc2c(Cl)cc(Cl)cc21)c1ccc(F)cc1` (stereo not drawn), the TGI in the assay on DMS 114 small cell lung is 58.9 µM; with DMS 273 small cell lung, over 100 µM; with KM20L2 colon, over 100 µM; in the assay with LXFL 529 NSCLC it was over 100 µM; in the assay on RXF-631 renal, over 100 µM.

`CC(=O)NNc1nc(C)c(C(=O)/C=C/c2ccc(Cl)c(Cl)c2)s1`: the TGI in the assay on DMS 114 small cell lung, in the assay with DMS 273 small cell lung, with KM20L2 colon and in the assay with RXF-631 renal was over 100 µM in each case.

Take `NC(N)=NS(=O)(=O)c1ccc(NC(=O)c2cccc3c(N)c4ccccc4nc23)cc1`: the TGI in the assay with DMS 114 small cell lung, in the assay on DMS 273 small cell lung, with KM20L2 colon, with LXFL 529 NSCLC and in the assay on RXF-631 renal was over 100 µM each time.
